Earlier results on two compounds are cited in US20220226307A1, “INHIBITION OF BETA-2 NICOTINIC ACETYLCHOLINE RECEPTORS TO TREAT ALZHEIMER'S DISEASE PATHOLOGY” (INSTITUT PASTEUR, priority 2016, published 2022).

The test system of the series is ventral hippocampus alpha-7 nAChR and alpha-4 beta-2 nAChR. Particulars: local infusion in ventral hippocampus (Felix and Levin, 1997; Levin et al., 2002).

In the case of `CCN1C[C@]2(COC(=O)c3ccccc3N3C(=O)C[C@H](C)C3=O)CC[C@H](OC)[C@@]34[C@@H]5C[C@H]6[C@H](OC)[C@@H]5[C@](O)(C[C@@H]6OC)[C@@](O)([C@@H](OC)[C@H]23)[C@@H]14` [MLA, methyllycaconitine], the working memory entry is listed as “induces working memory impairments”.

With `Br.CO[C@H]1CC=C2CCN3CCC4=C(CC(=O)OC4)[C@]23C1` [DHβE, dihydro-β-erythroidine hydrobromide], the working memory result was “induces working memory impairments”.
